Assay results reported in PubChem BioAssay (NCI).
Several values for one entry are separate records, joined by “and”; a condition that tells them apart may be missing. Equal values may be shown once.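 A five-concentration, 48-hour dose response in 96-well plates underlies each endpoint, interpolated linearly between surrounding concentrations. Here, GI50 denotes the concentration required for 50% inhibition of growth. TGI is the concentration that stops growth completely.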

Key:
Test in all cases: growth of human tumour cells (NCI), 48 h
MDA-MB-468 breast = tested on: MDA-MB-468 breast
786-0 renal = tested on: 786-0 renal
A498 renal = tested on: A498 renal
A549 NSCLC = tested on: A549 NSCLC
ACHN renal = tested on: ACHN renal
BT-549 breast = tested on: BT-549 breast
CAKI-1 renal = tested on: CAKI-1 renal
CCRF-CEM leukemia = tested on: CCRF-CEM leukemia
COLO 205 colon = tested on: COLO 205 colon
DU-145 prostate = tested on: DU-145 prostate
EKVX NSCLC = tested on: EKVX NSCLC
HCC-2998 colon = tested on: HCC-2998 colon
HCT-116 colon = tested on: HCT-116 colon
HCT-15 colon = tested on: HCT-15 colon
HL-60(TB) leukemia = tested on: HL-60(TB) leukemia
HOP-62 NSCLC = tested on: HOP-62 NSCLC
HOP-92 NSCLC = tested on: HOP-92 NSCLC
HS 578T breast = tested on: HS 578T breast
HT29 colon = tested on: HT29 colon
IGROV1 ovarian = tested on: IGROV1 ovarian
K-562 leukemia = tested on: K-562 leukemia
KM12 colon = tested on: KM12 colon
LOX IMVI melanoma = tested on: LOX IMVI melanoma
M14 melanoma = tested on: M14 melanoma
MALME-3M melanoma = tested on: MALME-3M melanoma
MCF7 breast = tested on: MCF7 breast
MDA-MB-231 breast = tested on: MDA-MB-231 breast
MDA-MB-435 = tested on: MDA-MB-435
NCI-H226 lung = tested on: NCI-H226 lung
NCI-H23 lung = tested on: NCI-H23 lung
NCI-H460 lung = tested on: NCI-H460 lung
NCI-H522 lung = tested on: NCI-H522 lung
OVCAR-3 ovarian = tested on: OVCAR-3 ovarian
OVCAR-4 ovarian = tested on: OVCAR-4 ovarian
OVCAR-5 ovarian = tested on: OVCAR-5 ovarian
OVCAR-8 ovarian = tested on: OVCAR-8 ovarian
PC-3 prostate = tested on: PC-3 prostate
RPMI-8226 leukemia = tested on: RPMI-8226 leukemia
RXF 393 renal = tested on: RXF 393 renal
SF-268 CNS = tested on: SF-268 CNS
SF-295 CNS = tested on: SF-295 CNS
SF-539 CNS = tested on: SF-539 CNS
SK-MEL-2 melanoma = tested on: SK-MEL-2 melanoma
SK-MEL-28 melanoma = tested on: SK-MEL-28 melanoma
SK-MEL-5 melanoma = tested on: SK-MEL-5 melanoma
SK-OV-3 ovarian = tested on: SK-OV-3 ovarian
SN12C renal = tested on: SN12C renal
SNB-19 CNS = tested on: SNB-19 CNS
SNB-75 CNS = tested on: SNB-75 CNS
SR leukemia = tested on: SR leukemia
SW-620 colon = tested on: SW-620 colon
T-47D breast = tested on: T-47D breast
TK-10 renal = tested on: TK-10 renal
U251 CNS = tested on: U251 CNS
UACC-257 melanoma = tested on: UACC-257 melanoma
UACC-62 melanoma = tested on: UACC-62 melanoma
UO-31 renal = tested on: UO-31 renal

## C[C@@H]1N=C(c2ccc(Br)cc2)Nc2nc3ccccn3c2C1=O
MDA-MB-468 breast
  GI50: 1.98 µM
  TGI: 5.12 µM

## CCCN1CCN(c2ccc3nc(-c4ccc5nc(-c6cc(OC)ccc6OC)[nH]c5c4)[nH]c3c2)CC1
MDA-MB-468 breast
  GI50: 1.7 µM
  TGI: 3.31 µM

## O=C(CC12CC3CC(CC(C3)C1)C2)NCCOCCOCCOCCNC(=O)c1cc2c(o1)C(=O)c1ccccc1C2=O
MDA-MB-468 breast
  GI50: 1.39 µM
  TGI: 4.36 µM

## CCOc1ccc(Nc2nc(-c3ccc4c(c3)NC(=O)CO4)cs2)cc1
MDA-MB-468 breast
  GI50: 2.46 µM
  TGI: 8.04 µM

## Cc1cc(N2CCCC2)nc(NC2CCCC(Nc3ccnc4cc(Cl)ccc34)C2)n1 (stereo unspecified)
MDA-MB-468 breast
  GI50: 1.41 µM
  TGI: 3.14 µM

## COc1ccc(CNc2c3ccccc3nc3ccc(OC)cc23)cc1
MDA-MB-468 breast
  GI50: 1.82 µM
  TGI: 4.31 µM

## O=S(=O)(c1ccc(N=C2NN=C(c3c[nH]c4ccccc34)CS2)cc1)N1CCOCC1
MDA-MB-468 breast
  GI50: 5.46 µM
  TGI: > 100 µM

## Cn1ccnc1C(=O)/C=C/c1ccc(CNC(=O)c2ccc(F)cc2)cc1
MDA-MB-468 breast
  GI50: 1.66 µM
  TGI: 7.04 µM

## c1cc(OCCN2CCCCC2)ccc1CNc1ccc2nc(CCC3CCCCC3)[nH]c2c1
MDA-MB-468 breast
  GI50: 1.58 µM
  TGI: 3.84 µM

## O=C(Nc1ccc(F)cc1F)c1cc(Br)ccc1O
MDA-MB-468 breast
  GI50: 2.54 µM
  TGI: 6.91 µM

## COc1c(Cl)c2c(c(OC)c1OC)-c1ccc(SC)c(=O)cc1[C@@H](NC(=O)OCC(F)(F)F)CC2
MDA-MB-468 breast
  GI50: < 0.01 µM
  TGI: 17.3 µM

## C=CCN1C=CC(=O)[C@H](O[Si](C)(C)C(C)(C)C)[C@@H]1/C=C/c1ccccc1
MDA-MB-468 breast
  GI50: 8.27 µM
  TGI: 22.2 µM

## O=CN1N=C(c2ccc(Cl)cc2)CC1c1cccc(Nc2ccnc3cc(Cl)ccc23)c1 (stereo unspecified)
MDA-MB-468 breast
  GI50: 0.284 µM
  TGI: 3.93 µM

## O=P([O-])(O)OP(=O)([O-])O.[NH-][C@@H]1CCCC[C@H]1[NH-].[Pt+4]
MDA-MB-468 breast
  GI50: 21.5 µM and 8.19 µM
  TGI: > 100 µM and 27.7 µM

## CC1(C)CC(n2cnc(-c3ccc(F)cc3)c2-c2ccnc(N)n2)CC(C)(C)N1
MDA-MB-468 breast
  GI50: 4.23 µM
  TGI: 24.2 µM

## Nc1cc(-c2cccc(OC(F)(F)F)c2)nc2ccc(N3CCCC3)cc12
MDA-MB-468 breast
  GI50: 0.0337 µM and 0.0304 µM and 0.0288 µM
  TGI: 0.237 µM and 0.115 µM and 0.136 µM

## O=C(N/N=C/c1ccccc1Cl)c1ccccc1Nc1ccnc(C(F)(F)F)c1
MDA-MB-468 breast
  GI50: 2.25 µM
  TGI: 11.1 µM

## Cc1ccc(NC2=C(Cl)C(=O)c3nc(C)ccc3C2=O)c(C)c1
MDA-MB-468 breast
  GI50: 1.61 µM
  TGI: 3.32 µM

## COc1cc2c(Oc3ccc4[nH]c(C)cc4c3F)ccnc2cc1OCC1(N)CC1
MDA-MB-468 breast
  GI50: 0.312 µM
  TGI: 1.67 µM

## C=C[C@H]1CCC/C=C/[C@@H]2C[C@H](O)C[C@H]2[C@H](O)/C=C/C(=O)O1
MDA-MB-468 breast
  GI50: < 0.01 µM
  TGI: < 0.0153 µM

## O=C([O][Hg][CH2]C1COCC([CH2][Hg][O]C(=O)c2ccccc2)O1)c1ccccc1 (stereo unspecified)
MDA-MB-468 breast
  GI50: 1.72 µM
  TGI: 3.24 µM

## COc1ccc(-c2nc3ncccn3c2/C=C/C(=O)c2cc(OC)c(OC)c(OC)c2)cc1
MDA-MB-468 breast
  GI50: 1.81 µM
  TGI: 3.65 µM

## NC(=O)c1ccc2c(-c3ccnc(NCCCO)n3)c(-c3ccc(F)cc3)nn2c1
MDA-MB-468 breast
  GI50: > 16.1 µM
  TGI: > 25 µM

## Cc1cc(N2CCN(c3ccnc4cc(Cl)ccc34)CC2)nc(NC2CCCCC2)n1
MDA-MB-468 breast
  GI50: 1.59 µM
  TGI: 3.88 µM

## Cc1ccc(-c2nc(N)nc3c2nnn3Cc2cccc(CO[C@H]3CCOC3)n2)o1
MDA-MB-468 breast
  GI50: 44.4 µM
  TGI: > 100 µM

## CCN=c1cc2sc3cc(NCC)c(C)cc3nc-2cc1C
MDA-MB-468 breast
  GI50: 0.86 µM
  TGI: 5.57 µM

## COC(=O)c1c2c(c(C)[n+]([O-])c1C)C(=O)C=C(NCc1ccc(OC)cc1)C2=O
MDA-MB-468 breast
  GI50: 0.679 µM
  TGI: 2.01 µM

## CCN(CC)CCOc1ccc(C(=C(C)Cc2ccc(OC)cc2)c2ccc(OCCN(CC)CC)cc2)cc1
MDA-MB-468 breast
  GI50: 3.27 µM
  TGI: 6.65 µM

## CN(C)C1CCN(C(=O)c2ccc(NC(=O)Nc3ccc(-c4nc(N5CCOCC5)nc(N5CCOCC5)n4)cc3)cc2)CC1
MDA-MB-468 breast
  GI50: 0.00749 µM and 0.013 µM
  TGI: 0.0636 µM and 0.185 µM

## Cn1nc(C(F)(F)F)cc1-c1cc(Cl)c(COc2ccc(Cl)cc2)c(-c2ccc(Cl)c(C(F)(F)F)c2)c1O
786-0 renal
  GI50: 2.62 µM
  TGI: 7.97 µM
A498 renal
  GI50: 2.53 µM
  TGI: 7.3 µM
A549 NSCLC
  GI50: 3.36 µM
  TGI: 15.5 µM
ACHN renal
  GI50: 2.23 µM
  TGI: 9.21 µM
BT-549 breast
  GI50: 1.85 µM
  TGI: 7.48 µM
CAKI-1 renal
  GI50: 2.17 µM
  TGI: 7.56 µM
CCRF-CEM leukemia
  GI50: 1.75 µM
  TGI: 10.8 µM
COLO 205 colon
  GI50: 1.38 µM
  TGI: 2.75 µM
DU-145 prostate
  GI50: 3.08 µM
  TGI: 14.1 µM
EKVX NSCLC
  GI50: 2.51 µM
  TGI: 10.4 µM
HCC-2998 colon
  GI50: 1.68 µM
  TGI: 10.5 µM
HCT-116 colon
  GI50: 1.71 µM
  TGI: 10.5 µM
HCT-15 colon
  GI50: 1.28 µM
  TGI: 7.14 µM
HL-60(TB) leukemia
  GI50: 2.18 µM
  TGI: 5.69 µM
HOP-62 NSCLC
  GI50: 3.26 µM
  TGI: 10.8 µM
HOP-92 NSCLC
  GI50: 1.61 µM
  TGI: 4.38 µM
HS 578T breast
  GI50: 1.82 µM
  TGI: 6.58 µM
HT29 colon
  GI50: 3.36 µM
  TGI: 14.6 µM
IGROV1 ovarian
  GI50: 2.92 µM
  TGI: 14.3 µM
K-562 leukemia
  GI50: 0.509 µM
  TGI: > 100 µM
KM12 colon
  GI50: 2.85 µM
  TGI: 10.8 µM
LOX IMVI melanoma
  GI50: 3.11 µM
  TGI: 10.6 µM
M14 melanoma
  GI50: 2.74 µM
  TGI: 8.16 µM
MALME-3M melanoma
  GI50: 1.96 µM
  TGI: 5.16 µM
MCF7 breast
  GI50: 1.26 µM
  TGI: 10 µM
MDA-MB-231 breast
  GI50: 1.88 µM
  TGI: 5.2 µM
MDA-MB-435
  GI50: 3.02 µM
  TGI: 10.3 µM
MDA-MB-468 breast
  GI50: 1.95 µM
  TGI: 8.03 µM
NCI-H226 lung
  GI50: 2.72 µM
  TGI: 9.52 µM
NCI-H23 lung
  GI50: 1.45 µM
  TGI: 4.77 µM
NCI-H460 lung
  GI50: 1.27 µM
  TGI: 7.3 µM
NCI-H522 lung
  GI50: 1.79 µM
  TGI: 13.4 µM
OVCAR-3 ovarian
  GI50: 2.26 µM
  TGI: 12.6 µM
OVCAR-4 ovarian
  GI50: 3.11 µM
  TGI: 13.5 µM
OVCAR-5 ovarian
  GI50: 3.83 µM
  TGI: 13.5 µM
OVCAR-8 ovarian
  GI50: 3.09 µM
  TGI: 14.5 µM
PC-3 prostate
  GI50: 1.57 µM
  TGI: 10.5 µM
RPMI-8226 leukemia
  GI50: 1.06 µM
  TGI: 5.4 µM
RXF 393 renal
  GI50: 1.64 µM
  TGI: 5.54 µM
SF-268 CNS
  GI50: 2.33 µM
  TGI: 13.1 µM
SF-295 CNS
  GI50: 1.88 µM
  TGI: 4.12 µM
SF-539 CNS
  GI50: 2.06 µM
  TGI: 5.69 µM
SK-MEL-2 melanoma
  GI50: 2.09 µM
  TGI: 5.3 µM
SK-MEL-28 melanoma
  GI50: 2.88 µM
  TGI: 11.7 µM
SK-MEL-5 melanoma
  GI50: 1.18 µM
  TGI: 2.71 µM
SK-OV-3 ovarian
  GI50: 3.02 µM
  TGI: 11 µM
SN12C renal
  GI50: 1.26 µM
  TGI: 7.7 µM
SNB-19 CNS
  GI50: 2.25 µM
  TGI: 13.1 µM
SNB-75 CNS
  GI50: 2 µM
  TGI: 8.07 µM
SR leukemia
  GI50: 2.66 µM
  TGI: > 100 µM
SW-620 colon
  GI50: 3.13 µM
  TGI: 12.1 µM
T-47D breast
  GI50: 0.724 µM
  TGI: 8.7 µM
TK-10 renal
  GI50: 3.3 µM
  TGI: 15.6 µM
U251 CNS
  GI50: 2.42 µM
  TGI: 14.3 µM
UACC-257 melanoma
  GI50: 2.67 µM
  TGI: 10.5 µM
UACC-62 melanoma
  GI50: 1.45 µM
  TGI: 4.88 µM
UO-31 renal
  GI50: 2.57 µM
  TGI: 8.6 µM

## O=c1[nH]ccc2nc(N3CCC(O)CC3)nc(Nc3cccc(C(F)(F)F)c3)c12
MDA-MB-468 breast
  GI50: 1.76 µM
  TGI: 7.11 µM

## Cc1cc(-c2nnc(N)nc2-c2ccc(F)cc2)cc(Cl)n1
MDA-MB-468 breast
  GI50: 20.6 µM
  TGI: > 100 µM
